# From patent US20230059873A1, “EXPANSION OF STEM CELLS IN SUSPENSION IN A BIOREACTOR” (REPAIRON GMBH, priority 2019, published 2023)
# Assays:
# Format in all cases: cell-based, human
# [1] = test system: iPSCs (TC1133); OCT4, NANOG, TRA-1-60; test: Effect of ROCKi pretreatment (4 h) on expression of pluripotency-related markers in iPSCs (Example 4)
# Procedure: (§1) • 13 ml with 2.5×10^5 cells/ml per vessel in passage 0; 5×10^5 cells/ml per vessel at all other passages. • Medium Change: 62% Exchange per day • Cells: TC1133, NINDS • Culture conditions: 37° C., pH 7.4, dO 23.8%, 300 rpm downstirr.
# (§2) • 1. Y27632 treatment of iPSC aggregates at a final concentration of 10 μM two hours before dissociation. • 2. Two times washing with Versene: Stop of stirring for two minutes, removal of medium to 2 mL without disturbing sedimented aggregates, addition of Versene to 10 mL, starting the stirring (300 rpm, downwards) for 10 seconds. • 3. Removal of medium to 2 mL in the same way as described in the washing steps and addition of Versene to 5 mL. • 4. Stirring at 600 rpm for up to 15 min until dissociation is sufficient. In progress controls have to be observed microscopically to assess the right degree of dissociation. • 5. Reduce stirring to 300 rpm. • 6. Cell count. • 7. Transfer a volume of cell suspension into a fresh ambr15 vessel resulting in a seeding concentration of 2-5×10^5 cells/mL, thereby diluting the cell dissociation reagent by addition of an excess volume (at least 5-fold) of iPS-Brew
# (§3) • ambr15 cell culture 24 Disposable bioreactors, Low temp, no sparge, Part number: 001-2B81 • StemMACS iPS-Brew XF, Basal Medium, Order no.: 130-107-086 • StemMACS™ iPS-Brew XF 50× Supplement; Order no.: 130-107-087 • ROCKi Y27632; Stemolecule • Versene Solution, Cat No.: 15040-033 • Ambr15 bioreactor, Sartorius Stedim • Nucleocounter NC-200 Type 900-0201 • Cellavista Cell Imager • Flow Cytometer: BD LSR II Special Order System
# The aim of this example was to analyze the effects of ROCKi pretreatment on passaging of iPSCs in suspension. Example 4 was performed like Examples 1-3 except that the ROCKi pretreatment was performed for 4 h.
# iPSCs (TC1133) [2] = test: Long-term suspension culture of iPSCs in ambr15 bioreactor with automated passaging, ROCKi vs TZV (Example 1): aggregate size and expansion; settings: for aggregate size: end of all passages except passage 0, ROCK inhibitor used during passaging
# Procedure: as §1
# as §2, with “In progress controls have to be observed microscopically to assess the right degree of dissociation. • 5.” left out
# as §3
# [3] = test system: iPSCs (TC1133); OCT4, TRA-1-60; test: Expression of pluripotency-related genes at end of passages in long-term suspension culture (Example 1)
# Procedure: as §1
# as §2, with “In progress controls have to be observed microscopically to assess the right degree of dissociation. • 5.” left out, “iPS-Brew […]” for “iPS-Brew”
# iPSCs (TC1133) [4] = test: Effect of ROCKi pretreatment (4 h) on passaging of iPSCs in suspension (Example 4): aggregate size and expansion rate
# Procedure: as §1
# as §2, with “Y27632 treatment of iPSC aggregates at a final concentration of 10 μM two hours before dissociation. • 2.” left out, “In progress controls have to be observed microscopically to assess the right degree of dissociation. • 5.” left out
# as §3
# The aim of this example was to analyze the effects of ROCKi pretreatment on passaging of iPSCs in suspension.
# [5] = day 3 after passaging, ROCKi pretreated
# [6] = day 4 of passage 0 (day of passaging, cells to be pretreated)
# [7] = day 5 after passaging, ROCKi pretreated
# [8] = day 3 after passaging, with ROCKi pretreatment
Structure (SMILES),"NANOG expression [1, 5] [%]","OCT4 expression [1, 5] [%]","TRA-1-60 expression [1, 5] [%]","NANOG expression [1, 6] [%]","OCT4 expression [1, 6] [%]","TRA-1-60 expression [1, 6] [%]","NANOG expression [1, 7] [%]","OCT4 expression [1, 7] [%]","TRA-1-60 expression [1, 7] [%]","accumulated fold increase (iPSCs (TC1133) [2]; after 43 days, 8 passages, calculated from starting cell numbers and splitting ratios)",aggregate size (iPSCs (TC1133) [2]),"expression of pluripotency-related genes (OCT4, TRA-1-60) ([3]; end of every analyzed passage)",aggregate size (iPSCs (TC1133) [4]; [8]) [μm],expansion rate (iPSCs (TC1133) [4]; [8]) [fold increase],aggregate size (iPSCs (TC1133) [4]; [6]) [μm],expansion rate (iPSCs (TC1133) [4]; [6]) [fold increase],"expansion rate (iPSCs (TC1133) [4]; day 5 after passaging, with ROCKi pretreatment) [fold increase]",expansion rates of iPSCs relative to ROCKi treated cells (iPSCs (TC1133) [2]; iPSCs passaged with TZV compared with ROCKi),"expression of pluripotency-related genes ([3]; end of passage 0, 2 and 3)"
"C[C@@H](N)[C@H]1CC[C@H](C(=O)Nc2ccncc2)CC1 [ROCKi, Y27632]",93.6,95.9,99.1,96.9,97.8,99.3,81.8,94.4,98.7,9.6×10^6,about 200 μm,high,162.06±53,3.14,197.41±75,12.34,9.2,,
"O=C(NCc1ccccc1)c1csc(Nc2ccncn2)n1 [TZV, thiazovivin]",,,,,,,,,,,about 200 μm,,,,,,,comparable,high
